Experimental data from US20060063794A1, “Method of attenuating graft rejection” (Fujisawa Pharmaceutical Co., Ltd., priority 2004, published 2006).
“Also recorded” adds a separate entry of the source.

How the values were obtained:
[1] = test system: rat cardiac allografts; conditions: rats, cited from earlier work
[2] = test system: B-cell proliferation; T cells; conditions: in vitro, FK778 in combination with Tacrolimus (FK506); cited from earlier work
[3] = test system: human kidney transplant recipients; test: Multi-center, randomized, double-blind trial of FK778/Tacrolimus/steroids: acute rejection and graft survival; assay type: in vivo
Description: Patients were randomised to a 3-month treatment regimen with high-level FK778/Tacrolimus/corticosteroid (arm 1), low-level FK778/Tacrolimus/corticosteroid (arm 2), or placebo/Tacrolimus/corticosteroid (arm 3). FK778 and placebo were administered in a double-blind manner. Patients in arm 1 received two doses of 600 mg/day and continued on 150 mg/day. Patients in arm 2 received one dose of 600 mg/day and continued on 75 mg/day. Subsequent doses were adjusted to maintain trough levels of FK778 in the range of 100-200 μg/mL (arm 1) and 10-100 μg/mL (arm 2). Trough levels of FK778 were centrally determined. Doses of FK778 were adjusted according to the recommendations of an independent panel.
Treatment of adults of both genders was studied in a multi-center, randomized, double-blind trial. Three groups were studied. Group H was treated with high dose FK778/tarcolimus/steroids; Group L was treated with low dose FK778/tarcolimus/steroids; and Group P was treated with placebo/Tacrolimus/steroids. Tacrolimus was given as an initial dose of 0.2 mg/kg per os divided into two equal doses, one pre-operatively and one post-operatively. Subsequent doses were adjusted to reach target Tacrolimus whole blood trough concentrations of 10-20 ng/mL on Days 0-30, and 5-15 ng/mL on Days 31-84. Methylprednisolone was perioperatively administered at 1000 mg i.v. or less and 125 mg on Day 1. A prednisolone equivalent was given orally at 20 mg from Day 2-14, at 15 mg on Day 15-28, at 10 mg from Day 29-42 and 5 mg from Day 43-84. Oral tablets of FK778/placebo were administered in a double-blind manner.
(§1) Patients in group H received loading doses of 600 mg/day on Day 1 and 2 and continued on 150 mg/day. This was the maximum permitted daily dose of FK778. Patients in group L received 600 mg/day only on Day 1 and continued on 75 mg/day. Dose adaptations were to be performed from day 7 onwards. Subsequent doses were adjusted to maintain plasma trough levels of FK778 in the target ranges of 100-200 μg/mL (H) and 10-100 μg/mL (L).
All visits and time points were calculated from the day of reperfusion (Day 0). […] Periods of dialysis dependence and hospitalization were recorded, as were details of medication. In case of a clinically apparent rejection, a renal graft biopsy was taken and classified by the local histopathologist according to the Banff 97 criteria (Racusen et al., Kidney Int. 55: 713-723 (1999)). Type I, II and III acute rejections (AR) were reported. AR was classified as corticosteroid-sensitive or corticosteroid-resistant. An independent histopathologist who was blinded to treatment and local biopsy readings performed the central biopsy review.
The primary efficacy endpoint was the incidence of AR proven by local biopsy over the first 12 weeks. […] For being defined as a patient whose target level was achieved, the average trough level of this patient had to be within the target range at week 2. On a continuous basis safety was assessed by patient and graft survival, adverse event monitoring, routine laboratory evaluations and vital signs. Treatment emergent adverse events were coded according to the MedDRA dictionary (version 5.0).
In this example, all tests were performed one-sided and pair-wise without alpha-adjustment for multiple testing using a 10% significance level. Statistical power was calculated for the analysis of the primary endpoint. A difference of 20% between groups in the incidence of biopsy-proven AR was considered a clinically meaningful difference. A reasonable expectation for the estimated rate of patients experiencing biopsy-proven AR in the Tacrolimus/steroid arm was 35%. Allowing for a dropout rate of 11%, it was estimated that with the outlined statistical methods the sample size of 45 evaluable patients per treatment arm was large enough to achieve a power of ≧80%. Thus, it was planned to enroll 135 patients using a 1:1:1 randomisation. The primary endpoint was analysed using chi-squared tests. […]

[4] = test system: renal allograft; conditions: rats, concomitant 14-day regimen FK778 (10/mg/kg/day) and Tacrolimus (1 mg/k/day); cited from earlier work
[5] = test system: chronic kidney allograft rejection; conditions: cited from earlier work
[6] = Same trial: FK778 plasma trough levels; assay type: in vivo, human
Description: as §1
The assay of FK778 trough concentrations were centrally performed in an independent laboratory and an independent unblinded pharmacokinetic (PK)-panel (Covance, UK) used the plasma FK778 levels to make dose adjustments when necessary. In addition, dummy adjustments in the placebo arm were performed. Concentrations were determined initially every other day, from day 14-42 weekly, and afterwards every other week.

[7] = test system: CMV; conditions: animal models; cited from earlier work
[8] = All patients, High level FK778 (group H)
[9] = All patients, Low level FK778 (group L)

## C#CCC/C(O)=C(\C#N)C(=O)Nc1ccc(C(F)(F)F)cc1 [FK778, (2Z)-2-cyano-3-hydroxy-N-[4-(trifluromethyl)phenyl]-2-hepten-6-ynamide]
[1]; 20 mg/kg for ten days
  Prolongation of graft survival: about two
[1]; MNA 715 (20/mg/kg) combined with Tacrolimus (2.4 mg/kg) for ten days
  Median graft survival: 19 days
[2]
  Effect in T cells: antagonistic tendency
  Effect on B-cell proliferation: synergistic inhibition of B-cell proliferation
[3]; [8]
  Corticosteroid-resistant AR (%): (8.2) %
  Corticosteroid-resistant AR, number of patients: 4
  Corticosteroid-sensitive AR (%): (22.4) %
  Corticosteroid-sensitive AR, number of patients: 11
[3]; All patients, High level FK778 (group H), N=49
  Overall AR proven by central biopsy, number of patients: 13
[3]; All patients, High level FK778 (group H), N=49, first 12 weeks
  Overall AR proven by local biopsy, number of patients: 14
[3]; [9]
  Corticosteroid-resistant AR (%): (11.1) %
  Corticosteroid-resistant AR, number of patients: 6
  Corticosteroid-sensitive AR (%): (14.8) %
  Corticosteroid-sensitive AR, number of patients: 8
[3]; All patients, Low level FK778 (group L), N=54
  Overall AR proven by central biopsy, number of patients: 14
[3]; All patients, Low level FK778 (group L), N=54, first 12 weeks
  Overall AR proven by local biopsy, number of patients: 14
[3]; Patients reaching target levels within second week, High level FK778 (subgroup H), N=26
  Overall AR proven by central biopsy, number of patients: 2
[3]; Patients reaching target levels within second week, Low level FK778 (subgroup L), N=48
  Overall AR proven by central biopsy, number of patients: 13
[3]; after 12 weeks, high and low level FK778
  Kaplan-Meier estimated rate of patients free from centrally determined biopsy proven acute rejection, higher compared with placebo: 12.1 % percentage points
[3]; arm 1, high-level FK778/Tacrolimus/corticosteroid, n=49
  Graft survival at month 4: 89.7%
[3]; arm 2, low-level FK778/Tacrolimus/corticosteroid, n=54
  Graft survival at month 4: 88.8%
[3]; group H vs. P
  Difference in incidence of AR by central biopsy review versus placebo: 12.6%
  Difference in incidence of AR proven by local biopsy versus placebo: 6.2%
[3]; group H, high level FK778
  Graft survival estimate (Kaplan-Meier method) at Week 16: 89.7%
[3]; group L vs. P
  Difference in incidence of AR by central biopsy review versus placebo: 13.2%
  Difference in incidence of AR proven by local biopsy versus placebo: 8.9%
[3]; group L, low level FK778
  Graft survival estimate (Kaplan-Meier method) at Week 16: 88.8%
[4]
  Effect on renal allograft survival: synergistically prolonged renal allograft survival
[5]; rat, given for ten days following transplantation
  Optimal dose: 10 mg/kg/day
[5]; rats
  Effect on chronic kidney allograft rejection: prevented chronic kidney allograft rejection; also recorded: reduced functional and histologic chronic kidney allograft rejection
[6]; group H, Day 3
  Maximum FK778 plasma trough level: 142.4 µg/mL
  Median FK778 plasma trough level: 84.34 µg/mL
[6]; group H, Day 3, after loading doses 600 mg/day on Day 1 and 2
  Mean FK778 plasma trough level: 86.97 ± 26.23 µg/mL
[6]; group H, Day 7
  Mean FK778 plasma trough level: 93.58 µg/mL
[6]; group H, Day 28
  Mean FK778 plasma trough level: 175.66 µg/mL
[6]; group L, Day 2
  Median FK778 plasma trough level: 41.35 µg/mL
[6]; group L, Day 2, after loading dose 600 mg/day on Day 1
  Mean FK778 plasma trough level: 38.30 ± 21.14 µg/mL
[6]; group L, Day 11
  Mean FK778 plasma trough level: 31.53 ± 21.26 µg/mL
  Median FK778 plasma trough level: 28.35 µg/mL
[6]; group L, Day 42
  Mean FK778 plasma trough level: 62.36 ± 27.60 µg/mL
  Median FK778 plasma trough level: 59.36 µg/mL
[7]
  Effect on CMV disease: attenuates CMV disease
